Reference: paper PMC9811466, “Structural Features Affecting the Interactions and Transportability of LAT1-Targeted Phenylalanine Drug Conjugates” (Molecular Pharmaceutics, 2022)
Several values for one entry are separate records, joined by “and”; a condition that tells them apart may be missing. Identical values can stand only once. Entries after “also recorded” stand apart in the source; their conditions may differ. Like-named read-outs stand apart in the source and are kept apart here.

What was measured:
hLAT1/4F2hc [1] = molecular target: T1, hLAT1/4F2hc (Homo sapiens, UniProt Q01650); test: Concentration-dependent cellular uptake into HEK-hLAT1 cells (LC-MS/MS, Michaelis-Menten); format: cell-based; details: difference in uptake HEK-hLAT1 vs HEK-MOCK, with docking poses; 2-100 μM curves
T1 construct: Invitrogen (host cells)

[2] = molecular target: T2, LAT1 in MCF-7 human breast cancer cells (Homo sapiens, UniProt Q01650); test: cis-inhibition of [14C]-L-leucine uptake in MCF-7 cells; format: cell-based; details: for inhibition at 50 µM: MCF7, MCF-7 cells
T2 construct: wild-type MCF-7 human breast cancer cell line; endogenous in cells; host or cells: MCF-7 human breast cancer cells (wild type)
Procedure: Cells were cultured in DMEM (Gibco, ThermoFisher Scientific, Waltham, MA, USA) supplemented with L-glutamine (2 mM; ThermoFisher Scientific, Waltham, MA, USA), heat-inactivated fetal bovine serum (10%; Gibco, ThermoFisher Scientific, Waltham, MA, USA), penicillin (50 U/mL)-streptomycin (50 μg/mL) solution (ThermoFisher Scientific, Waltham, MA, USA), and hygromycin B solution (100 μg/mL) for transfected cells. HEK-hLAT1 and HEK-MOCK cells (passages 7–20) were seeded at a density of 5 × 10^5 cells/wells onto 24-well plates. The cells were used in the characterization, competition, and uptake studies 2 days after seeding. MCF-7 cells were seeded at a density of 1 × 10^5 and were used in the competition studies 1 day after seeding. The culture medium was removed, and the cells were washed with prewarmed Hanks’ balanced salt solution (HBSS; 125 mM NaCl, 4.8 mM KCl, 1.2 mM MgSO4, 1.2 mM KH2PO4, 1.3 mM CaCl2, 5.6 mM D-glucose, and 25 mM HEPES, pH 7.4). The cells were then incubated with HBSS at 37 °C for 10 min before the experiments.
(§1) In the following experiments, the MCF-7, HEK-hLAT1, and HEK-MOCK cells were cultured, seeded, and preincubated as described above. The HBSS was removed, and the ability of the compounds to inhibit the uptake of a known LAT1 substrate, [^14C]-L-leucine (PerkinElmer, Waltham, MA, USA), was studied by incubating the cells at RT for 10 min in uptake buffer pH 7.4 (250 μL) containing 0.76 μM (0.1 mCi/mL) of [^14C]-L-leucine and 0.025–1800 μM of the studied compound (or HBSS as blank). After incubation, the reaction was stopped with ice-cold HBSS, and the cells were washed two times with ice-cold HBSS. The cells were then lysed with 250 μL of 0.1 M sodium hydroxide, the lysate was mixed with 1.0 mL of Emulsifier safe cocktail (PerkinElmer, Waltham, MA, USA), and the radioactivity was measured with a liquid scintillation counter (MicroBeta^2 counter, PerkinElmer, Waltham, MA, USA). The inhibition of [^14C]-L-leucine in the presence of the studied compounds as compared to the control (HBSS) was calculated as percentages (%).

hLAT1/4F2hc [3] = molecular target: T1, hLAT1/4F2hc; test: cis-inhibition of [14C]-L-leucine uptake in HEK-hLAT1 cells; format: cell-based; details: for inhibition at 50 µM: read-out: [14C]-L-Leucine uptake inhibition % (50μM)
Procedure: as §1
Using the stably hLAT1/4F2hc expressing cell line, the compounds’ inhibitory efficiencies and uptake kinetics were determined via the cis-inhibition assay and uptake studies, respectively. (Table 1) Cis-inhibition is based on the competition between the ligand and LAT1 substrate [^14C]-L-leucine that results in inhibition of substrate uptake. The competitive uptake with L-leucine is reported as the IC50 value of L-leucine uptake and extent as inhibition percentage (%) at a given concentration.

HEK-MOCK cells [4] = test: Concentration-dependent cellular uptake into HEK-MOCK cells; format: cell-based, human; details: for Vmax: 10 min
Procedure: (§2) The concentrations for the compounds were in the range of 2–400 μM. Otherwise, the experiment was carried out as described above and analyzed by liquid chromatography coupled with an electrospray ionization (ESI) triple quadrupole mass spectrometer (LC–MS–MS). […]
(§3) The concentration-dependent uptake studies were performed by adding 2–400 μM of the tested compound in 250 μL of prewarmed HBSS buffer on the cell layer. […] After incubation, the cells were washed and lysed as described above. The lysate was collected from wells into an Eppendorf tube and centrifuged at 4 °C, the supernatant was collected, and the intracellular concentrations of studied compounds were analyzed by liquid chromatography coupled with an ESI triple quadrupole mass spectrometer (LC–MS–MS). The results were calculated from the standard curve that was prepared by spiking known amounts of each compound to the cell lysate and normalized to protein concentration. The protein concentrations on each plate were determined as a mean of three samples by Bio-Rad Protein Assay, based on the Bradford dye-binding method, using BSA as a standard protein and measuring the absorbance (595 nm) by a multiplate reader (EnVision, PerkinElmer, Inc., Waltham, MA, USA). All statistical analyses (Michaelis–Menten kinetic parameters) were performed using GraphPad Prism v. 5.03 software (GraphPad Software, San Diego, CA., USA). […]
(§4) After protein precipitation, the samples were centrifuged for 10 min with 10,000 g at 4 °C. The supernatant was then collected and transferred to vials for LC–MS/MS analysis. For BCH and gabapentin, cells were also lysed with 0.1 M NaOH, an aliquot was taken from the lysates, and perchloric acid (PCA) was added to precipitate the proteins. The samples were then centrifuged, and the supernatant was diluted 1:10 with H20 with 0.1% formic acid including the IS and transferred to vials for analysis.
(§5) The samples were analyzed with LC–MS/MS coupled with an Agilent 1200 series Rapid Resolution LC System (Agilent Technologies, Waldbronn, Germany) and an Agilent 6410 Triple Quadrupole with electrospray ionization (ESI) (Agilent Technologies, Palo Alto, CA, USA). […] The aqueous mobile phase was 0.1% formic acid in water (A), while the organic mobile phase was 0.1% formic acid in acetonitrile (B). […] For compound 4: 0–4 min 10% → 90% B, 4–6 min 90% B, 6–6.1 min 90% → 10%, 6.1–9 min 10%. For compound 5: 0–1 min 20% → 95% B, 1–4 min 95%, 4–4.1 min 95% → 20%, 4.1–7 min 20%. For compounds 6 and 9: 0–2 min 10% → 95%, 2–6 min 95%, 6–6.1 min 95% → 10%, 6.1–9 min 10%. For compound 8: 0–1 min 20% → 80%, 1–5.2 min 80%, 5.2–5.3 min 80% → 20%, 5.3–9 min 20%.

[5] = molecular target: T2, LAT1 in MCF-7 human breast cancer cells; details: MCF-7 cells; read-out: IC50 of [14C]-L-leucine uptake; cited from earlier work
MCF-7 cells = details: cited from earlier work
hLAT1/4F2hc [6] = molecular target: T1, hLAT1/4F2hc; test: Concentration-dependent cellular uptake into HEK-hLAT1 cells (LC-MS/MS, Michaelis-Menten); format: cell-based; details: HEK-hLAT1 cells; for Vmax: 2-400 μM, 10 min
Procedure: as §2, §3, §4, §5

HEK-MOCK cells [7] = test: cis-inhibition of [14C]-L-leucine uptake in HEK-MOCK cells; format: cell-based, human
Procedure: as §1
Using the stably hLAT1/4F2hc expressing cell line, the compounds’ inhibitory efficiencies and uptake kinetics were determined via the cis-inhibition assay and uptake studies, respectively. (Table 1) Cis-inhibition is based on the competition between the ligand and LAT1 substrate [^14C]-L-leucine that results in inhibition of substrate uptake. The competitive uptake with L-leucine is reported as the IC50 value of L-leucine uptake and extent as inhibition percentage (%) at a given concentration. Overall, the inhibition trends of the tested compounds were similar between HEK-hLAT1 and MCF-7 cells. In the next step, more straightforward results were obtained by undertaking direct cellular uptake studies with both HEK-hLAT1 and HEK-MOCK cells. This experiment enabled us to determine not only the uptake kinetics (Vmax and Km) of the ligands but also their preference for LAT1-expressing cells over the comparator HEK-MOCK cells.

[8] = HEK-hLAT1 cells, 50 μM compound, compounds 1-12, 50 µM
[9] = HEK-hLAT1 cells, compounds 1-12, read-out: IC50 of [14C]-L-leucine uptake
[10] = HEK-hLAT1 cells, 50 μM compound, compounds 1-12
[11] = HEK-hLAT1 cells, known substrates, read-out: IC50 of [14C]-L-leucine uptake
[12] = known LAT1 substrates, 2-400 μM, n = 3

T2 sequence (Q01650 whole entry): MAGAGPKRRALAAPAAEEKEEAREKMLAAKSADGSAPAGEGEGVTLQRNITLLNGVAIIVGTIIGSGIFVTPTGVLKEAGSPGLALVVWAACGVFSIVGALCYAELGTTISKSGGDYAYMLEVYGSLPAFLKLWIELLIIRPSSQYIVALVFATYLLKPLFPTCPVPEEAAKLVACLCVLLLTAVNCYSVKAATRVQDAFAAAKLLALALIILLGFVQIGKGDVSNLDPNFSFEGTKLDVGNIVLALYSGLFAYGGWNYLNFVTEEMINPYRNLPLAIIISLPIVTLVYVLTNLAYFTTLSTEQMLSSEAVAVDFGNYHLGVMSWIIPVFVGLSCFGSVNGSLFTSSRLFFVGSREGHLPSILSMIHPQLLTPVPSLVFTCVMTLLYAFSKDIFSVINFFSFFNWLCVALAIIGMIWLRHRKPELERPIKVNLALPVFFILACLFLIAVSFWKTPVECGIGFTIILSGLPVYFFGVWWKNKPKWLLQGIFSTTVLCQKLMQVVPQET
T2 sequence (P08195 102-630 partner): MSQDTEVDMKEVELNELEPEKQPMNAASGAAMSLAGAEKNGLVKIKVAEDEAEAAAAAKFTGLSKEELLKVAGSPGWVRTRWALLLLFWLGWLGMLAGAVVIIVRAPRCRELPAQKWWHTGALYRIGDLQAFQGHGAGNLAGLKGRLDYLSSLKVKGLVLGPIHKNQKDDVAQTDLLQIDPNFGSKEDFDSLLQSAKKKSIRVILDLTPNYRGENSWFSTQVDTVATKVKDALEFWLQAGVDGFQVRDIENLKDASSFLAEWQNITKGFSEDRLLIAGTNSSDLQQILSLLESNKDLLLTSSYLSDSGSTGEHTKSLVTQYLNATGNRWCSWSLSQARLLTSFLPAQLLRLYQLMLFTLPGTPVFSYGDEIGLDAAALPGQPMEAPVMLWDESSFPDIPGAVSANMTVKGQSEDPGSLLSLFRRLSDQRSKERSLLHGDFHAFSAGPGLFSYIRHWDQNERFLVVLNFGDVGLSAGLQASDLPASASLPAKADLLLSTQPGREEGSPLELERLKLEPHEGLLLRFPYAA
T1 sequence (Q01650 whole entry): as the sequence (Q01650 whole entry) above
T1 sequence (P08195 102-630 partner): as the sequence (P08195 102-630 partner) above

COc1cc(/C=C/C(=O)Nc2cccc(C[C@H](N)C(=O)O)c2)ccc1O [Compound 9]
interaction class with LAT1 (interaction and transportability) (hLAT1/4F2hc [1]): low
inhibition at 50 µM ([2]; 50 μM compound): 79.7 ± 7.87%
[14C]-L-Leucine uptake inhibition % (50μM) (hLAT1/4F2hc [3]; [8]): not able to inhibit; also recorded: no inhibition
IC50 (hLAT1/4F2hc [3]; [9]): > 100 µM
Km (HEK-MOCK cells [4]; compounds 1-12): 94 ± 45 µM
Vmax (HEK-MOCK cells [4]; compounds 1-12, 2-400 μM): 149±41 pmol/min/mg of protein
IC50 [5]: 1.1 ± 0.08 µM

CCCN(CCC)S(=O)(=O)c1ccc(C(=O)Nc2cccc(C[C@H](N)C(=O)O)c2)cc1 [Compound 10]
interaction class with LAT1 (interaction and transportability) (hLAT1/4F2hc [1]): low
inhibition at 50 µM ([2]; 50 μM compound): 40%
IC50 ([2]; MCF-7 cells): 137 ± 1.6 µM
[14C]-L-Leucine uptake inhibition % (50μM) ([2]; MCF-7 cells, 50 μM compound, 50 µM): 45±1.7%
Km (MCF-7 cells; MCF-7 cell line): 15.2 µM
Vmax (MCF-7 cells; MCF-7 cell line): 111 pmol/min/mg
[14C]-L-Leucine uptake inhibition % (50μM) (hLAT1/4F2hc [3]; [8]): 11±9.9%
inhibition at 50 µM (hLAT1/4F2hc [3]; [10]): 10%
IC50 (hLAT1/4F2hc [3]; [9]): > 100 µM
Vmax (HEK-MOCK cells [4]; compounds 1-12, 2-400 μM): 248±616 pmol/min/mg of protein

CC(C(=O)Nc1cccc(C[C@H](N)C(=O)O)c1)c1cccc(C(=O)c2ccccc2)c1 (stereo partly shown) [Compound 5]
interaction class with LAT1 (interaction and transportability) (hLAT1/4F2hc [1]): medium interactions
inhibition at 50 µM ([2]; 50 μM compound): 93 ± 0.5%
Vmax (hLAT1/4F2hc [6]; compounds 1-12): 63±7.5 pmol/min/mg of protein
Km (hLAT1/4F2hc [6]; compounds 1-12, read-out: Km): 19 ± 7.3 µM
inhibition at 50 µM (hLAT1/4F2hc [3]; [10]): 48 ± 1.8%
IC50 (hLAT1/4F2hc [3]; [9]): 11 µM
Km (HEK-MOCK cells [4]; compounds 1-12): 109 ± 69 µM
Vmax (HEK-MOCK cells [4]; compounds 1-12, 2-400 μM): 63±24 pmol/min/mg of protein
IC50 [5]: 0.5 ± 0.05 µM

N[C@@H](Cc1ccc(O)c(O)c1)C(=O)O [L-DOPA, reference compound]
Vmax (hLAT1/4F2hc [6]; known LAT1 substrates, n = 3): 15±7.6 nmol/min/mg of protein
Km (hLAT1/4F2hc [6]; known LAT1 substrates, n = 3, read-out: Km): 763 ± 413 µM
IC50 (hLAT1/4F2hc [3]; [11]): 4.1 µM
[14C]-L-Leucine uptake inhibition % (50μM) (HEK-MOCK cells [7]; HEK-MOCK cells, 50 μM compound, 0.76 μM [14C]-L-leucine, 10 min, known substrates): no inhibition
Vmax (HEK-MOCK cells [4]; [12]): 2.8±0.9 nmol/min/mg of protein
Km (HEK-MOCK cells [4]; known LAT1 substrates, n = 3): 225 ± 90 µM

N[C@@H](Cc1c[nH]c2ccccc12)C(=O)O [Tryptophan, L-tryptophan, reference compound]
Vmax (hLAT1/4F2hc [6]; known LAT1 substrates, n = 3): 12±19 nmol/min/mg of protein
IC50 (hLAT1/4F2hc [3]; [11]): 24 µM
inhibition at 50 µM (hLAT1/4F2hc [3]): 50.2 ± 1.7%
inhibition at 50 µM (HEK-MOCK cells [7]; Homo sapiens, 10 min, read-out: [14C]-L-Leucine uptake inhibition % (50μM)): 19.6 ± 6.2%
IC50 (HEK-MOCK cells [7]; Homo sapiens, read-out: IC50 of [14C]-L-leucine uptake): 163 µM
Vmax (HEK-MOCK cells [4]; [12]): 0.3±0.2 nmol/min/mg of protein
Km (HEK-MOCK cells [4]; known LAT1 substrates, n = 3): 482 ± 496 µM

N[C@@H](Cc1ccc(OC(=O)NCCc2ccc(O)c(O)c2)cc1)C(=O)O [Compound 2]
interaction class with LAT1 (interaction and transportability) (hLAT1/4F2hc [1]): highest interactions
Km (hLAT1/4F2hc [6]; compounds 1-12): 103 ± 41 µM
Vmax (hLAT1/4F2hc [6]; compounds 1-12): 1521 pmol/min/mg of protein and 1521±364 pmol/min/mg of protein
Vmax (MCF-7 cells; MCF-7 cells, previous studies): < 3 pmol/min/mg
IC50 (hLAT1/4F2hc [3]): > 100 µM
[14C]-L-Leucine uptake inhibition % (50μM) (hLAT1/4F2hc [3]; [10]): no inhibition
Km (HEK-MOCK cells [4]; compounds 1-12): 8.7 ± 12 µM
Vmax (HEK-MOCK cells [4]; compounds 1-12, 2-400 μM): 19 pmol/min/mg of protein and 19±12 pmol/min/mg of protein

N[C@@H](Cc1cccc(C(=O)NCCc2ccc(O)c(O)c2)c1)C(=O)O [Compound 3]
interaction class with LAT1 (interaction and transportability) (hLAT1/4F2hc [1]): highest interactions
IC50 ([2]; MCF-7 cells): 3.3 ± 1.3 µM
Vmax (MCF-7 cells; MCF-7 cells, previous studies): < 3 pmol/min/mg
inhibition at 50 µM (hLAT1/4F2hc [3]; [10]): 4.27 ± 3.94%
IC50 (hLAT1/4F2hc [3]; [9]): > 100 µM
